In patent publication US12257252B2, “Compositions and methods for increasing tetrahydrobiopterin plasma exposure” (PTC Therapeutics MP, Inc., priority 2018, dated 2025):
Where two headings read alike, the source gives them in different places.

Legend:
[1] = Food effect on sepiapterin: plasma sepiapterin and BH4 in fasted and fed subjects; type: in vivo; settings: sepiapterin 10 mg/kg oral
Method: Method: Subjects received 2 oral doses of sepiapterin (10 mg/kg) separated by 1 week in a fasted and fed state. Subjects were fed a standard high-fat (approximately 50 percent of total caloric content of the meal) and high-calorie (approximately 800 to 1000 calories) meal starting 30 minutes prior to receiving their second oral dose of sepiapterin on Day 8.
Sampling for PK analysis occurred predose on Days 1 and 8 (within 30 minutes before dosing) and 0.5 hr, 1 hr, 2 hr, 4 hr, 8 hr, 12 hr, and 24 hr after the doses on Days 1 and 8. The blood concentrations of sepiapterin and BH4 were analyzed by MNG Labs.

[2] = type: in vivo
Method: Method: Twelve subjects were given a single dose (10 mg/kg) of sepiapterin under fasting conditions and then 7 days later under fed conditions. Standard definitions of adverse events (AE) were used. All-cause AE were those that occurred at any time; treatment-emergent adverse events (TEAE) were those that occurred at or after the time of administration of study treatment. TEAEs related to study drug were based on the opinion of the investigator. Serious AE were defined as life threatening or caused death, hospitalization or prolongation of existing hospitalization, or were a persistent or significant disability/incapacity or a substantial disruption of the ability to conduct normal life functions, or a congenital anomaly/birth defect.

[3] = CSF levels of sepiapterin, BH4, BH2 and neurotransmitter metabolites after sepiapterin; type: in vivo; settings: 60 mg/kg; Day 1 or Day 7 +/-30 minutes from BH4 Tmax
Method: The cerebrospinal fluid (CSF) of selected subjects is collected via lumbar puncture on Day1 (before dose) and on Day 7 (i.e., following daily dosing for 7 days) approximately 30 minutes from time of the maximum observed plasma BH4 concentration (Tmax) as determined from the blood analysis. The cerebral spinal fluid (CSF) is analyzed by MNG Labs. Descriptive statistics are provided to characterize any changes in neurotransmitter metabolism between the Day 1, and Day 7 sample results. Method: Analyses were conducted in CSF samples of subjects administered 60 mg/kg sepiapterin or placebo. The following analytes were measured: sepiapterin, BH4, BH2, homovanillic acid (HVA), and 5-hydroxyindoleacetic acid (HIAA). Descriptive (n, mean, SD, median, minimum, maximum) statistics for these analytes at Day 1 and Day 7+/−30 minutes from Tmax and change from baseline at Day 7 were determined for each analyte.

[4] = Pharmacokinetics of multiple doses of sepiapterin in fed subjects; type: in vivo
Description: Methods: Three cohorts of eight fed subjects each were randomized to receive once-daily sepiapterin or placebo for 7 days in a 6:2 ratio. A sentinel dose strategy was also used for administration of the highest sepiapterin dose.

For `C[C@H](O)C(=O)C1=Nc2c(nc(N)[nH]c2=O)NC1` [sepiapterin, Sepiapterin], the “Maximum sepiapterin concentration in plasma” value ([1]; fasted, 0 h (predose)) was 0 nM, the “Mean sepiapterin concentration in plasma” value ([1]; fasted, 0 h (predose)) was 0 nM and the “Median sepiapterin concentration in plasma” value ([1]; fasted, 0 h (predose)) was 0 nM. For the same compound, the “Maximum sepiapterin concentration in plasma” value ([1]; fasted, 8 h) was 0 nM, the “Mean sepiapterin concentration in plasma” value ([1]; fasted, 8 h) was 0 nM and the “Median sepiapterin concentration in plasma” value ([1]; fasted, 8 h) was 0 nM. For the same compound, the “Maximum sepiapterin concentration in plasma” value ([1]; fasted, 12 h) was 0 nM, the “Mean sepiapterin concentration in plasma” value ([1]; fasted, 12 h) was 0 nM and the “Median sepiapterin concentration in plasma” value ([1]; fasted, 12 h) was 0 nM. The “Maximum sepiapterin concentration in plasma” value ([1]; fasted, 24 h) was 0 nM, the “Mean sepiapterin concentration in plasma” value ([1]; fasted, 24 h) was 0 nM and the “Median sepiapterin concentration in plasma” value ([1]; fasted, 24 h) was 0 nM. The “Maximum sepiapterin concentration in plasma” value ([1]; fed, 0 h (predose)) was 0 nM, the “Mean sepiapterin concentration in plasma” value ([1]; fed, 0 h (predose)) was 0 nM and the “Median sepiapterin concentration in plasma” value ([1]; fed, 0 h (predose)) was 0 nM. The concentration at 2 h ([1]; fed, 0 h (predose), read-out: Minimum sepiapterin concentration in plasma) was 0 nM, the “Median sepiapterin concentration in plasma” value ([1]; fed, 0.5 h) was 0 nM and the concentration at 2 h ([1]; fed, 0.5 h, read-out: Minimum sepiapterin concentration in plasma) was 0 nM. For the same compound, the concentration at 2 h ([1]; fed, 4 h, read-out: Minimum sepiapterin concentration in plasma) was 0 nM, the “Median sepiapterin concentration in plasma” value ([1]; fed, 8 h) was 0 nM and the concentration at 2 h ([1]; fed, 8 h, read-out: Minimum sepiapterin concentration in plasma) was 0 nM. The “Maximum sepiapterin concentration in plasma” value ([1]; fed, 12 h) was 0 nM, the “Mean sepiapterin concentration in plasma” value ([1]; fed, 12 h) was 0 nM and the “Median sepiapterin concentration in plasma” value ([1]; fed, 12 h) was 0 nM. For the same compound, the concentration at 2 h ([1]; fed, 12 h, read-out: Minimum sepiapterin concentration in plasma) was 0 nM, the “Maximum sepiapterin concentration in plasma” value ([1]; fed, 24 h) was 0 nM and the “Mean sepiapterin concentration in plasma” value ([1]; fed, 24 h) was 0 nM. The “Median sepiapterin concentration in plasma” value ([1]; fed, 24 h) was 0 nM, the concentration at 2 h ([1]; fed, 24 h, read-out: Minimum sepiapterin concentration in plasma) was 0 nM and the concentration at 0 h ([1]; human, plasma, fasted, 0 h (predose), read-out: Minimum sepiapterin concentration in plasma) was 0 nM. The concentration at 0.5 h ([1]; human, plasma, fasted, 0.5 h, read-out: Minimum sepiapterin concentration in plasma) was 0 nM, the concentration at 4 h ([1]; human, plasma, fasted, 4 h, read-out: Minimum sepiapterin concentration in plasma) was 0 nM and the concentration at 8 h ([1]; human, plasma, fasted, 8 h, read-out: Minimum sepiapterin concentration in plasma) was 0 nM. The concentration at 12 h ([1]; human, plasma, fasted, 12 h, read-out: Minimum sepiapterin concentration in plasma) was 0 nM, the concentration at 24 h ([1]; human, plasma, fasted, 24 h, read-out: Minimum sepiapterin concentration in plasma) was 0 nM and the concentration at 1 h ([1]; human, plasma, fed, 1 h, read-out: Minimum sepiapterin concentration in plasma) was 0 nM. The concentration at 2 h ([1]; human, plasma, fed, 2 h, read-out: Minimum sepiapterin concentration in plasma) was 0 nM, the “Geometric mean ratio (fasted/fed, 90% CI) for plasma sepiapterin AUClast” value ([1]; fasted/fed) was 1.29 (0.84 to 2.00) and the “Geometric mean ratio (fasted/fed, 90% CI) for plasma sepiapterin Cmax” value ([1]; fasted/fed) was 1.57 (1.21 to 2.0). For the same compound, the “Cmax of BH4 in the plasma, fed compared to fasted” value ([1]; fed vs fasted) was “much higher”, the “Cmax of sepiapterin in the plasma, fed compared to fasted” value ([1]; fed vs fasted) was “much lower” and the TEAE ([2]; human, in vivo, 10 mg/kg) was 4. The “TEAE related to study drug” value ([2]; human, in vivo, 10 mg/kg) was 1, the “≥1 AE” value ([2]; human, in vivo, 10 mg/kg) was 5 and the “Incidence of adverse events, fed compared to fasted subjects” value ([2]; single dose 10 mg/kg, fed vs fasted) was “decreased incidence of adverse events”. For the same compound, the “Sepiapterin in the CSF” value [3] was “not detected”, the AUC0-24 of sepiapterin ([4]; Day 7, 60 mg/kg once daily) was 23 ng·h/mL and the “Drug accumulation (plasma sepiapterin and BH4 after 1 and 7 days of treatment)” value ([4]; once daily for 7 days) was “no drug accumulation”.
